The structures appear in SMILES notation.

The values that follow come from patent US5905068A, “Retroviral protease inhibiting compounds” (Abbott Laboratories, priority 1996, dated 1999).

Data set [1] is described as follows: Effect of ritonavir on pharmacokinetics of the co-administered compound of this invention. Type of data set: in vivo. The following applies: ritonavir in combination with a compound of this invention.
The target of the next data set is HIV-1 protease (Human immunodeficiency virus type 1 group M subtype B, UniProt P04585). Description: Fluorogenic Assay for Screening Inhibitors of HIV Protease.
The subject of a further data set is uninfected MT4 cells. The data set can be described thus: Cytotoxicity in uninfected MT4 cells (MTT). The format is cell-based. The conditions noted are these: 5 days, n=four duplicate determinations, read-out: CTC50 (50% cytotoxicity concentration). A digest of the protocol:
(§1)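 Uninfected MT4 cells, 1×10^4 per well, incubated 5 days at 37 °C with half-log compound dilutions. Viability read by MTT-type OD at 570/650 nm after SDS/HCl lysis overnight. CTC50 taken as 50% cytotoxicity concentration.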

A further data set relates to HIVIIIB. Description: Antiviral Activity: anti-HIV activity in MT4 cells infected with HIVIIIB (MTT). Type of data set: cell-based. The conditions noted are these: MOI 0.003, 5 days, n=four duplicate determinations. A digest of the protocol:
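MT4 cells infected 1 h with HIVIIIB at 0.003 MOI, washed, seeded at 1×10^4 cells/well with half-log compound dilutions in RPMI 1640 plus 10% FBS and added human serum (final 60%, 35% or 22.5% total serum), 5 days at 37 °C. Viability read by MTT at 570/650 nm; EC50 by median effect equation, CTC50 on uninfected MT4 cells.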

The nature of data set [2]: Cytotoxicity in uninfected MT4 cells (MTT). The format is cell-based. The following applies: human, 5 days, n=four duplicate determinations, read-out: CTC50 (50% cytotoxicity concentration). Put shortly:
as §1

The mark [3] stands for this setting: Human immunodeficiency virus 1, 120 h.

For `CC(C)c1nc(CN(C)C(=O)N[C@H](C(=O)N[C@@H](Cc2ccccc2)C[C@H](O)[C@H](Cc2ccccc2)NC(=O)OCc2cncs2)C(C)C)cs1` [ritonavir], in data set [1], the “blood levels of the co-administered compound of this invention” value was “increases blood levels”, the “half-life of the co-administered compound of this invention” value is listed as “increases half-life” and the “time to peak plasma concentration of the co-administered compound of this invention” value is given as “increases the time to peak plasma concentration”.

For orientation: % Inhibition means the change of the read-out against control, counted positive when it falls. The term EC50 denotes the concentration giving half of the maximal effect. For `Cc1ccc(OCC(=O)N[C@@H](Cc2ccccc2)C[C@H](O)[C@H](Cc2ccccc2)NC(=O)O[C@H]2CO[C@H]3OCC[C@H]32)c(C)n1` [Example 10, (2S,3S,5S)-5-(2,6-Dimethyl-pyridin-3-yl-oxyacetyl)amino-2-((3R,3aS,6aR)-bis-tetrahydrofuran-3-yl-oxycarbonyl)amino-1,6-diphenyl-3-hydroxyhexane], the “% Inhibition” value on HIV-1 protease (0.5 nM inhibitor, pH 4.5, 30° C.) was 49%. In the data set with uninfected MT4 cells, the CC50 is greater than 100000 nM. The compound further had a concentration giving a half-maximal response (EC50) in the data set with HIVIIIB of 184 nM.

The term inhibition denotes the share of the control response that was lost under treatment. High values mean strong suppression, low ones little suppression. Turning to `O=C(N[C@@H](Cc1ccccc1)C[C@H](O)[C@H](Cc1ccccc1)NC(=O)O[C@H]1CO[C@H]2OCC[C@H]21)O[C@H]1CO[C@H]2OCC[C@H]21` [Example 20, (2S,3S,5S)-2,5-Di-((3R,3aS,6aR)-bis-Tetrahydrofuran-3-yl-oxycarbonyl)amino-1,6-diphenyl-3-hydroxyhexane], testing at 0.0005 µM against HIV-1 protease (pH 4.5) gave an inhibition of 64%. In data set [2], the CC50 at 120 h is greater than 100000 nM. A half-maximal effect in the data set on HIVIIIB (setting [3]) (EC50) was put at 34 nM.

In turn, `Cc1cccc(C)c1OCC(=O)N[C@@H](Cc1ccccc1)C[C@H](O)[C@H](Cc1ccccc1)NC(=O)O[C@H]1CO[C@H]2OCC[C@H]21` [Example 5, (2S,3S,5S)-5-(2,6-Dimethyl-phenoxyacetyl)amino-2-((3R,3aS,6aR)-bis-tetrahydrofuran-3-yl-oxycarbonyl)amino-1,6-diphenyl-3-hydroxyhexane] yielded an inhibition at 0.0005 µM against HIV-1 protease (pH 4.5) of 87%. The CC50 at 120 h in data set [2] was greater than 100000 nM. Further, in the data set with HIVIIIB (setting [3]), a half-maximal response (EC50) required 41 nM.

As to `Cc1ccc(N)c(C)c1OCC(=O)N[C@@H](Cc1ccccc1)C[C@H](O)[C@H](Cc1ccccc1)NC(=O)O[C@H]1CO[C@H]2OCC[C@H]21` [Example 16, (2S,3S,5S)-5-(2,6-Dimethyl-3-amino-phenoxyacetyl)amino-2-((3R,3aS,6aR)-bis-tetrahydrofuran-3-yl-oxycarbonyl)amino-1,6-diphenyl-3-hydroxyhexane], the inhibition at 0.0005 µM against HIV-1 protease (pH 4.5) came out at 87%. In addition, the CC50 at 120 h in data set [2] is greater than 100000 nM. Further, the concentration for a half-maximal effect (EC50) in the data set with HIVIIIB (setting [3]) is less than 32 nM.

With `O=C(N[C@@H](Cc1ccccc1)[C@@H](O)C[C@H](Cc1ccccc1)NC(=O)OC1COC2OCCC12)OCc1cncs1` (stereo partly drawn) [Example 35, (2S,3S,5S)-2-((5-Thiazolyl)methoxycarbonyl)amino-5-((3R,3aS,6aR), (3S,3aR,6aS)-bis-tetrahydrofuran-3-yl-oxycarbonyl)amino-1,6-diphenyl-3-hydroxyhexane], the inhibition at 0.0005 µM on HIV-1 protease (pH 4.5) was 52%. The CC50 at 120 h in data set [2] was greater than 100000 nM. In addition, it took 428 nM to reach a half-maximal effect in the data set on HIVIIIB (setting [3]) (EC50).

For `Nc1ccc(C(=O)N[C@@H](Cc2ccccc2)[C@@H](O)C[C@H](Cc2ccccc2)NC(=O)O[C@H]2CO[C@H]3OCC[C@H]32)c(Cl)c1` [Example 71, (2S,3S,5S)-2-(4-Amino-2-chloro-benzoyl)amino-5-((3R,3aS,6aR)-bis-tetrahydrofuran-3-yl-oxycarbonyl)amino-1,6-diphenyl-3-hydroxyhexane], testing at 0.0005 µM on HIV-1 protease (pH 4.5) gave an inhibition of 72%. The CC50 at 120 h in data set [2] was greater than 100000 nM. The same compound showed an EC50 in the data set on HIVIIIB (setting [3]) of 101 nM.

On HIV-1 protease (pH 4.5), `Cc1cccc(C)c1OCC(=O)N[C@@H](Cc1ccccc1)[C@@H](O)C[C@H](Cc1ccccc1)NC(=O)O[C@@H]1CCSC1(C)C` [Example 32, (2S,3S,5S)-2-(2,6-Dimethylphenoxyacetyl)amino-5-(3R-2,2-dimethyl-tetrahydrothienyloxycarbonyl)amino-1,6-diphenyl-3-hydroxyhexane] gave an inhibition at 0.0005 µM of 50%. Moreover, the CC50 at 120 h in data set [2] is greater than 100000 nM. Moreover, in the data set with HIVIIIB (setting [3]), it took 1180 nM to reach a half-maximal effect (EC50).

As to `Cc1c(O)cccc1C(=O)N[C@@H](Cc1ccccc1)[C@@H](O)C[C@H](Cc1ccccc1)NC(=O)O[C@H]1CO[C@H]2OCC[C@H]21` [Example 59, (2S,3S,5S)-2-(3-Hydroxy-2-methyl-benzoyl)amino-5-((3R,3aS,6aR)-bis-tetrahydrofuran-3-yl-oxycarbonyl)amino-1,6-diphenyl-3-hydroxyhexane], 0.0005 µM produced 67% inhibition at HIV-1 protease (pH 4.5). The CC50 at 120 h in data set [2] was greater than 100000 nM. In the data set with HIVIIIB (setting [3]), this compound yielded an EC50 of 153 nM.

At HIV-1 protease (pH 4.5), `Cc1nc(CN(C)C(=O)N[C@H](C(=O)N[C@@H](Cc2ccccc2)C[C@H](O)[C@H](Cc2ccccc2)NC(=O)O[C@@H]2CO[C@@H]3OCC[C@@H]32)C(C)C)cs1` [Example 47, (2S,3S,5S)-5-(N-(N-((N-Methyl-N-((2-methyl-4-thiazolyl)methyl)amino)carbonyl)-L-valinyl)amino)-2-((3S,3aR,6aS)-bis-tetrahydrofuran-3-yl-oxycarbonyl)amino-1,6-diphenyl-3-hydroxyhexane] yielded an inhibition at 0.0005 µM of 82%. Also, the CC50 at 120 h in data set [2] is greater than 100000 nM. In addition, the concentration giving a half-maximal response (EC50) in the data set on HIVIIIB (setting [3]) turned out to be 55 nM.

Take `Cc1cccc(C)c1OCC(=O)N[C@@H](Cc1ccccc1)[C@@H](O)C[C@H](Cc1ccccc1)NC(=O)OC1CCSC1` (mixture of isomers) [Example 30, (2S,3S,5S)-2-(2,6-Dimethylphenoxyacetyl)amino-5-(3(R,S)-tetrahydrothienyloxycarbonyl)amino-1,6-diphenyl-3-hydroxyhexane]: the inhibition at 0.0005 µM on HIV-1 protease (pH 4.5) was determined as 52%. Besides, in data set [2], the CC50 at 120 h was found to be 13500 nM. The compound also came in with an EC50 in the data set with HIVIIIB (setting [3]) of 1000 nM.

As for `Cc1ncnc(C)c1OCC(=O)N[C@@H](Cc1ccccc1)C[C@H](O)[C@H](Cc1ccccc1)NC(=O)O[C@H]1CO[C@H]2OCC[C@H]21` [Example 8, (2S,3S,5S)-5-(4,6-Dimethyl-pyrimidinyl-5-oxyacetyl)amino-2-((3R,3aS,6aR)-bis-tetrahydrofuran-3-yl-oxycarbonyl)amino-1,6-diphenyl-3-hydroxyhexane], on HIV-1 protease (pH 4.5), the inhibition at 0.0005 µM came to 56%. Also, in data set [2], the CC50 at 120 h is greater than 100000 nM. In the data set on HIVIIIB (setting [3]), the EC50 worked out at 815 nM.

On to `O=C(N[C@@H](Cc1ccccc1)C[C@H](O)[C@H](Cc1ccccc1)NC(=O)OC1COC2OCCC12)OCc1cncs1` (stereo partly drawn) [Example 40, (2S,3S,5S)-5-((5-Thiazolyl)methoxycarbonyl)amino-2-((3R,3aS,6aR), (3S,3aR,6aS)-bis-tetrahydrofuran-3-yl-oxycarbonyl)amino-1,6-diphenyl-3-hydroxyhexane], for which, on HIV-1 protease (pH 4.5), at 0.0005 µM the inhibition was 43%. In data set [2], the CC50 at 120 h was greater than 100000 nM. In the data set with HIVIIIB (setting [3]), the response was half-maximal at 502 nM (EC50).

On HIV-1 protease (pH 4.5), `O=C(N[C@@H](Cc1ccccc1)[C@@H](O)C[C@H](Cc1ccccc1)NC(=O)c1cccc(O)c1)O[C@@H]1CO[C@@H]2OCC[C@@H]21` [Example 58, (2S,3S,5S)-5-(3-Hydroxy-benzoyl)amino-2-((3S,3aR,6aS)-bis-tetrahydrofuran-3-yl-oxycarbonyl)amino-1,6-diphenyl-3-hydroxyhexane] yielded an inhibition at 0.0011 µM of 50%. Further, in data set [2], the CC50 at 120 h is greater than 100000 nM. In the data set with HIVIIIB (setting [3]), this compound showed an EC50 of 2610 nM.

For `O=C(N[C@@H](Cc1ccccc1)[C@@H](O)C[C@H](Cc1ccccc1)NC(=O)O[C@@H]1CO[C@@H]2OCC[C@@H]21)O[C@H]1CO[C@H]2OCC[C@H]21` [Example 22, (2S,3S,5S)-2-((3R,3aS,6aR)-bis-Tetrahydrofuran-3-yl-oxycarbonyl)amino-5-((3S,3aR,6aS)-bis-Tetrahydrofuran-3-yl-oxycarbonyl)amino-1,6-diphenyl-3-hydroxyhexane], testing at 0.0005 µM against HIV-1 protease (pH 4.5) gave an inhibition of 73%. In addition, the CC50 at 120 h in data set [2] is greater than 100000 nM. In the data set with HIVIIIB (setting [3]), this compound came in with an EC50 of 107 nM.

`CC(C)c1nc(CN(C)C(=O)N[C@H](C(=O)N[C@@H](Cc2ccccc2)C[C@H](O)[C@H](Cc2ccccc2)NC(=O)OC2COC3OCCC23)C(C)C)cs1` (stereo partly drawn) [Example 34, (2S,3S,5S)-5-(N-(N-((N-Methyl-N-((2-isopropyl-4-thiazolyl)methyl)amino)carbonyl)-L-valinyl)amino)-2-((3R,3aS,6aR), (3S,3aR,6aS)-bis-tetrahydrofuran-3-yl-oxycarbonyl)amino-1,6-diphenyl-3-hydroxyhexane] returned an inhibition at 0.0005 µM against HIV-1 protease (pH 4.5) of 52%. In addition, in data set [2], the CC50 at 120 h amounted to 56300 nM. For the same compound, the response with HIVIIIB (setting [3]) was half-maximal at 9 nM (EC50).
